US4021557A, “11-Aminoalkyl-pyridobenzodiazepinones and salts thereof” (Boehringer Ingelheim GmbH, priority 1974, dated 1977)

What was measured:
[1] = Acute toxicity after i.v. administration in NMRI-mice (Litchfield and Wilcoxon); details: mouse, in vivo, iv, both sexes, deaths within 14 days, read-out: LD50 in the mouse after i.v. application
Description: The acute toxicity was determined with NMRI-mice of both sexes (body weight 20 gm) after intravenous administration of the compound. 0.1 ml of a 0.9% sodium chloride solution per 10gm of animal was used as the vehicle.

[2] = tested on: acetylcholine-induced bronchospasm; assay: Antagonism to acetylcholine-provoked bronchospasm in anesthetized guinea pigs (Konzett and Rossler), i.v.; antiasthmatic / bronchospasmolytic activity; assay type: in vivo; details: guinea pig; for ED50: Cavia porcellus, iv, 20γ acetylcholine per kg i.v., graphic extrapolation, read-out: Bronchospasmolytic ED50 against acetylcholine-induced bronchospasm
Description: The antiasthmatic activity was tested as the antagonism to bronchospasm provoked by intravenous administration of 20γ of acetylcholine per kg body weight in anesthetized guinea pigs (according to method of Konzett and Rossler). From the average percentage decrease of the bronchospasm produced by administering various doses of the compounds of the […] invention an ED50 was determined by graphic extrapolation. The compounds were administered intravenously.

[3] = tested on: heart rate; assay: Effect on heart rate of the anesthetized cat after intravenous administration; assay type: in vivo; parameters: key to type of the reaction (heart rate): --: decrease in heart rate; details: i.v.; for ED10 (dose leading to a 10% alteration of the heart rate) / ED25 (dose leading to a 25% alteration of the heart rate): graphic extrapolation; for type of the reaction (heart rate): tested dosage range 250 - 4,000 γ/kg (A 12.5 - 16,000; W 125 - 4,000)
Description: The effect on the heart rate was tested on cats of both sexes (body weight between 2.3 and 3.5 kg) under chloralose-urethane anesthesia. The heart rate was continuously registered by means of a Grass-tachograph 7P4, controlled by the R-wave of the electrocardiogram. The test compound was injected through a catheter introduced into the vena femoralis.

CC(C)NCCCN1c2ccccc2N(C)C(=O)c2cccnc21.Cl [F, 6,11-dihydro-11-(3'-isopropylamino-n-propyl)-6-methyl-5H-pyrido[2,3-b][1,5]benzodiazepin-5one hydrochloride]
LD50 at 336 h [1]: 43.5 mg/kg
ED50 [2]: 0.172 mg/kg
Average duration of effective action in the ED50 range [2]: > 110 min

CN(C)CCN1c2ccccc2N(C)C(=O)c2cccnc21.Cl [B, 6,11-dihydro-11-(2'-dimethylamino-ethyl)-6-methyl-5H-pyrido[2,3-b][1,5]benzodiazepin-5-one hydrochloride]
LD50 at 336 h [1]: 25.8 mg/kg
ED50 [2]: 0.148 mg/kg
Average duration of effective action in the ED50 range [2]: > 110 min

CCN(CC)CCN1c2ccccc2C(=O)N(C)c2cccnc21.Cl [P, 11-(2'-diethylamino-ethyl)-5,11-dihydro-5-methyl-6H-pyrido[2,3-b][1,4]benzodiazepin-6-one hydrochloride]
ED50 [2]: 0.21 mg/kg
Average duration of effective action in the ED50 range [2]: 110 min

CN1C(=O)c2ccccc2N(CCCN2CCCCCC2)c2ncccc21.Cl [W, 5,11-dihydro-11-(3'-hexamethyleneimino-n-propyl)-5-methyl-6H-pyrido[2,3-b][1,4]benzodiazepin-6-one hydrochloride]
LD50 at 336 h [1]: 13.4 mg/kg
ED10 (dose leading to a 10% alteration of the heart rate) [3]: 1,200 γ/kg
ED25 (dose leading to a 25% alteration of the heart rate) [3]: > 4,000 γ/kg
type of the reaction (heart rate) [3]: --
ED50 [2]: 0.215 mg/kg
Average duration of effective action in the ED50 range [2]: > 40 min

CCCN(CCC)CCCN1c2ccccc2N(C)C(=O)c2cccnc21.Cl [H, 6,11-dihydro-11-(3'-di-n-propylamino-n-propyl)-6-methyl-5H-pyrido[2,3-b][1,5]benzodiazepin-5-one hydrochloride]
LD50 at 336 h [1]: 21.7 mg/kg
ED50 [2]: 0.095 mg/kg
Average duration of effective action in the ED50 range [2]: > 70 min

CN1C(=O)c2cccnc2N(CCCN2CCCC2)c2ccccc21.Cl [L, 6,11-dihydro-6-methyl-11-(3'-pyrrolidino-n-propyl)-5H-pyrido[2,3-b][1,5]benzodiazepin-5one hydrochloride]
LD50 at 336 h [1]: 22.7 mg/kg
ED10 (dose leading to a 10% alteration of the heart rate) [3]: 1,900 γ/kg
ED25 (dose leading to a 25% alteration of the heart rate) [3]: 3,950 γ/kg
type of the reaction (heart rate) [3]: --
ED50 [2]: 0.043 mg/kg
Average duration of effective action in the ED50 range [2]: 120 min

CCN(CC)CCN1c2ccccc2N(C)C(=O)c2cccnc21.Cl [G, 11-(2'-diethylamino-ethyl)-6,11-dihydro-6-methyl-5H-pyrido[2,3-b][1,5]benzodiazepin-5-one hydrochloride]
LD50 at 336 h [1]: 27.1 mg/kg
ED50 [2]: 0.044 mg/kg
Average duration of effective action in the ED50 range [2]: 50 min

CN1C(=O)c2cccnc2N(CCCN2CCCCC2)c2ccccc21.Cl [M, 6,11-dihydro-6-methyl-11-(3'-piperidino-n-propyl)-5H-pyrido[2,3-b][1,5]benzodiazepin-5-one hydrochloride]
LD50 at 336 h [1]: 10.6 mg/kg
ED10 (dose leading to a 10% alteration of the heart rate) [3]: 1,400 γ/kg
ED25 (dose leading to a 25% alteration of the heart rate) [3]: > 4,000 γ/kg
type of the reaction (heart rate) [3]: --
ED50 [2]: 0.063 mg/kg
Average duration of effective action in the ED50 range [2]: > 60 min

CN(C)CCCN1c2ccccc2N(C)C(=O)c2cccnc21.Cl [C, 6,11-dihydro-11-(3'-dimethylamino-n-propyl)-6-methyl-5H-pyrido[2,3-b][1,5]benzodiazepin-5-one hydrochloride]
LD50 at 336 h [1]: 30.7 mg/kg
ED10 (dose leading to a 10% alteration of the heart rate) [3]: > 4,000 γ/kg
type of the reaction (heart rate) [3]: --
ED50 [2]: 0.081 mg/kg
Average duration of effective action in the ED50 range [2]: > 60 min

CN1C(=O)c2ccccc2N(CCCN2CCCCC2)c2ncccc21.Cl [V, 5,11-dihydro-5-methyl-11-(3'-piperidino-n-propyl)-6H-pyrido[2,3-b][1,4]benzodiazepin-6-one hydrochloride]
LD50 at 336 h [1]: 13.4 mg/kg
ED10 (dose leading to a 10% alteration of the heart rate) [3]: 1,100 γ/kg
ED25 (dose leading to a 25% alteration of the heart rate) [3]: > 4,000 γ/kg
type of the reaction (heart rate) [3]: --
ED50 [2]: 0.18 mg/kg
Average duration of effective action in the ED50 range [2]: > 110 min

CN(C)CCCN1c2ccccc2C(=O)N(C)c2cccnc21 [R, 5,11-dihydro-11-(3'-dimethylamino-n-propyl)-5-methyl-6H-pyrido[2,3-b][1,4]benzodiazepin-6-one]
ED50 [2]: 0.19 mg/kg
Average duration of effective action in the ED50 range [2]: > 50 min

CC(C)N(CCN1c2ccccc2C(=O)N(C)c2cccnc21)C(C)C.Cl [Q, 5,11-dihydro-11-(2'-diisopropylamino-ethyl)-5-methyl-6H-pyrido[2,3-b][1,4]benzodiazepin-6-one hydrochloride]
LD50 at 336 h [1]: 27 mg/kg
ED50 [2]: 0.053 mg/kg
Average duration of effective action in the ED50 range [2]: > 50 min

CCNCCCN1c2ccccc2N(C)C(=O)c2cccnc21.Cl [E, 11-(3'-ethylamino-n-propyl)-6,11-dihydro-6-methyl-5H-pyrido[2,3-b][1,5]benzodiazepin-5-one hydrochloride]
LD50 at 336 h [1]: 56.1 mg/kg
ED10 (dose leading to a 10% alteration of the heart rate) [3]: 1,050 γ/kg
ED25 (dose leading to a 25% alteration of the heart rate) [3]: > 4,000 γ/kg
type of the reaction (heart rate) [3]: --
ED50 [2]: 0.068 mg/kg
Average duration of effective action in the ED50 range [2]: > 90 min

CN1C(=O)c2ccccc2N(CCCN2CCCC2)c2ncccc21.Cl [U, 5,11-dihydro-5-methyl-11-(3-pyrrolidino-n-propyl)-6H-pyrido[2,3-b][1,4]benzodiazepin-6-one hydrochloride]
LD50 at 336 h [1]: 22.9 mg/kg
ED10 (dose leading to a 10% alteration of the heart rate) [3]: 2,300 γ/kg
ED25 (dose leading to a 25% alteration of the heart rate) [3]: > 4,000 γ/kg
type of the reaction (heart rate) [3]: --
ED50 [2]: 0.105 mg/kg
Average duration of effective action in the ED50 range [2]: > 50 min

CN1C(=O)c2cccnc2N(CCN2CCCC2)c2ccccc21.Cl [O, 6,11-dihydro-6-methyl-11-(2'-pyrrolidino-ethyl)-5H-pyrido[2,3-b][1,5]benzodiazepin-5-one hydrochloride]
LD50 at 336 h [1]: 11.4 mg/kg
ED10 (dose leading to a 10% alteration of the heart rate) [3]: > 4,000 γ/kg
type of the reaction (heart rate) [3]: --
ED50 [2]: 0.097 mg/kg
Average duration of effective action in the ED50 range [2]: > 30 min

CCN(CC)CCCN1c2ccccc2C(=O)N(C)c2cccnc21.Cl [S, 5,11-dihydro-11-(3'-diethylamino-n-propyl)-5-methyl-6H-pyrido[2,3-b][1,4]benzodiazepin-6-one hydrochloride]
ED50 [2]: 0.123 mg/kg
Average duration of effective action in the ED50 range [2]: > 110 min

CNCCCN1c2ccccc2N(C)C(=O)c2cccnc21.Cl [D, 6,11-dihydro-6-methyl-11-(3'-methylamino-n-propyl)-5H-pyrido[2,3-b][1,5]benzodiazepin-5-one hydrochloride]
LD50 at 336 h [1]: 43.2 mg/kg
ED50 [2]: 0.155 mg/kg
Average duration of effective action in the ED50 range [2]: 45 min

CN1C(=O)c2cccnc2N(CCCN2CCCCCC2)c2ccccc21.Cl [N, 6,11-dihydro-11-(3'-hexamethyleneimino-n-propyl)-6-methyl-5H-pyrido[2,3-b][1,5]benzodiazepin-5-one hydrochloride]
LD50 at 336 h [1]: 12.7 mg/kg
ED50 [2]: 0.064 mg/kg
Average duration of effective action in the ED50 range [2]: > 50 min
